The values that follow come from patent publication US11459298B2, “Class of dicationic compounds as well as the preparative method and the use thereof” (WEST CHINA HOSPITAL, SICHUAN UNIVERSITY, priority 2018, dated 2022).

Assay [1] deals with New Zealand white rabbits. In words: Experiment on muscle relaxation in anesthetized rabbits (TOF neuromuscular transmission monitor). In kind it is in vivo, rabbit. The settings on record: for ED (2 x ED95): Oryctolagus cuniculus, intravenous injection, propofol anesthesia; for ED (2 x ED95) / Onset time / Recovery time: N = 8; for Onset time: TOF=0, after i.v. 2× ED95 equivalent dose; for Recovery time: TOF=90%, after i.v. 2× ED95 equivalent dose; for change characteristics of TOF 1-4 after administration: depolarizing vs non-depolarizing pattern. The protocol: Male New Zealand white rabbits weighing 2-3.5 kg were used as experimental animals for muscle relaxation test. The specific procedures were: propofol emulsion was intravenously administrated to induce and maintain general anesthesia (induction dose: 10 mg/kg; maintenance dose: […]). Tracheal intubation was carried out and respiratory support was used.

The next assay has as its system human body. Particulars: after single administration, clinical use; cited from earlier work.

Some results are limits rather than exact numbers.

With `COc1ccc(C[C@@H]2c3cc(OC)c(OC)cc3CC[N@+]2(C)CCC(=O)OCCCCCOC(=O)CC[N@@+]2(C)CCc3cc(OC)c(OC)cc3[C@H]2Cc2ccc(OC)c(OC)c2)cc1OC` [Cisatracurium, reference compound], in assay [1], the ED (2 x ED95) was found to be 0.08 mg/kg; the Onset time was greater than 90 s; the Recovery time is listed as 17.6 ± 5.2 min; the “change characteristics of TOF 1-4 after administration” value was “successively and gradually decreased, rather than in equal proportion”.
In the case of `C[N+](CCCCOC(=O)OCOC(=O)C[N+]1(Cc2ccc([N+](=O)[O-])cc2)CCCCC1)(Cc1ccccc1)Cc1ccc([N+](=O)[O-])cc1` (centres unmarked) [Compound 1], in assay [1], the ED (2 x ED95) was 0.8 mg/kg, the Onset time is given as less than 40 s and the Recovery time worked out at 5.2 ± 1.1 min.
The corresponding values for `C[N+](CCOC(=O)OCOC(=O)C[N+]1(Cc2ccc([N+](=O)[O-])cc2)CCCCC1)(Cc1ccccc1)Cc1ccc([N+](=O)[O-])cc1` (centres unmarked) [Compound 2] are 0.9 mg/kg, less than 40 s and 6.4 ± 1.4 min.
For `C[N+](CCOC(=O)OCOC(=O)CCC[N+]1(Cc2ccc([N+](=O)[O-])cc2)CCCCC1)(Cc1ccc(F)cc1)Cc1ccc([N+](=O)[O-])cc1` (centres unmarked) [Compound 3], in assay [1], the ED (2 x ED95) is 1.8 mg/kg, the Onset time is reported as less than 40 s and the Recovery time came to 4.8 ± 0.5 min.
With `C[N+](CCOC(=O)OCOC(=O)CCC[N+]1(Cc2ccc([N+](=O)[O-])cc2)CCCCC1)(Cc1ccc(Cl)cc1)Cc1ccc([N+](=O)[O-])cc1` (centres unmarked) [Compound 4], in assay [1], the ED (2 x ED95) is 1.4 mg/kg, the Onset time was less than 40 s and the Recovery time amounted to 5.4 ± 0.9 min.
Regarding `C[N+](CCOC(=O)OCOC(=O)CCC[N+]1(Cc2ccc([N+](=O)[O-])cc2)CCCCC1)(Cc1ccc([N+](=O)[O-])cc1)Cc1ccc(Cl)cc1Cl` (centres unmarked) [Compound 5], in assay [1], the ED (2 x ED95) is 1.6 mg/kg, the Onset time is reported as less than 40 s and the Recovery time is listed as 5.2 ± 1.2 min.
Taken in the same sequence, the figures for `C[N+](CCOC(=O)OCOC(=O)CCC[N+]1(Cc2ccc([N+](=O)[O-])cc2)CCCCC1)(Cc1ccc([N+](=O)[O-])cc1)Cc1c(F)cccc1F` (centres unmarked) [Compound 6] were 0.8 mg/kg, less than 40 s and 4.1 ± 1.1 min.
As to `C[N+](CCOC(=O)OCOC(=O)CCC[N+]1(Cc2ccc([N+](=O)[O-])cc2)CCCCC1)(Cc1ccc([N+](=O)[O-])cc1)Cc1ccc([N+](=O)[O-])cc1` [Compound 7], in assay [1], the ED (2 x ED95) was 1.6 mg/kg, the Onset time is listed as less than 40 s and the Recovery time amounted to 5.2 ± 1.1 min.
Taken in the same sequence, the figures for `C[N+](CCOC(=O)OCOC(=O)CCC[N+]1(Cc2ccc([N+](=O)[O-])cc2)CCCCC1)(Cc1ccc(C#N)cc1)Cc1ccc([N+](=O)[O-])cc1` (centres unmarked) [Compound 8] were 1.7 mg/kg, less than 40 s and 7.2 ± 1.4 min.
The corresponding values for `C[N+](CCOC(=O)OCOC(=O)CCC[N+]1(Cc2ccc([N+](=O)[O-])cc2)CCCCC1)(Cc1ccc([N+](=O)[O-])cc1)Cc1ccc(C(F)(F)F)cc1` (centres unmarked) [Compound 9] are 1.6 mg/kg, less than 40 s and 5.2 ± 1.2 min.
The corresponding values for `C[N+](CCOC(=O)OCOC(=O)CCC[N+]1(Cc2ccc(C(F)(F)F)cc2)CCCCC1)(Cc1ccccc1)Cc1ccc([N+](=O)[O-])cc1` (centres unmarked) [Compound 10] are 2.4 mg/kg, less than 40 s and 6.2 ± 0.9 min.
`C[N+](CCOC(=O)OCOC(=O)CCC[N+]1(Cc2ccc([N+](=O)[O-])cc2)CCCCC1)(Cc1ccc(-c2ccccc2)cc1)Cc1ccc([N+](=O)[O-])cc1` (centres unmarked) [Compound 11]: in assay [1], the ED (2 x ED95) came out at 1.5 mg/kg, the Onset time is listed as less than 40 s and the Recovery time is given as 7.7 ± 1.6 min.
For the molecule `COc1ccc(C[N+](C)(CCOC(=O)OCOC(=O)CCC[N+]2(Cc3ccc(OC)c(OC)c3)CCCCC2)Cc2ccc(OC)c(OC)c2)cc1OC` [Compound 12], in assay [1], the ED (2 x ED95) is 4.4 mg/kg, the Onset time was less than 40 s and the Recovery time stood at 6.3 ± 2.1 min.
On to `Cc1ccc(C[N+](C)(CCCCOC(=O)OCOC(=O)C[N+]2(Cc3ccc(C)c(C)c3)CCCCC2)Cc2ccc(C)c(C)c2)cc1C` [Compound 13], for which, in assay [1], the ED (2 x ED95) worked out at 6.2 mg/kg, the Onset time is listed as less than 40 s and the Recovery time was 6.9 ± 1.7 min.
The corresponding values for `C[N+](CCOC(=O)OCOC(=O)COCC[N+]1(Cc2ccc([N+](=O)[O-])cc2)CCCCC1)(Cc1ccccc1)Cc1ccc([N+](=O)[O-])cc1` (centres unmarked) [Compound 19] are 0.8 mg/kg, less than 40 s and 4.1 ± 0.8 min.
Taken in the same sequence, the figures for `CC1CC[N+](CCCC(=O)OCOC(=O)OCC[N+](C)(Cc2ccccc2)Cc2ccc([N+](=O)[O-])cc2)(Cc2ccc([N+](=O)[O-])cc2)CC1` (centres unmarked) [Compound 35] were 1 mg/kg, less than 40 s and 7.2 ± 2.3 min.
The corresponding values for `C[N+](CCOC(=O)OCOC(=O)CCC[N+]1(Cc2ccc([N+](=O)[O-])cc2)CCCCC1)(Cc1ccc([N+](=O)[O-])cc1)Cc1ccsc1` (centres unmarked) [Compound 38] are 1.2 mg/kg, less than 40 s and 4.4 ± 1.1 min.
For the molecule `C[N+](CCOC(=O)OCOC(=O)CCC[N+]1(Cc2ccc([N+](=O)[O-])cc2)CCC(F)(F)CC1)(Cc1ccccc1)Cc1ccc([N+](=O)[O-])cc1` (centres unmarked) [Compound 45], in assay [1], the ED (2 x ED95) worked out at 0.8 mg/kg, the Onset time was less than 40 s and the Recovery time was 5.1 ± 1.4 min.
Consider `C[N+](CCOC(=O)OCOC(=O)CCC[N+]1(Cc2ccc([N+](=O)[O-])cc2)CCCC1)(Cc1ccc(F)cc1)Cc1ccc([N+](=O)[O-])cc1` (centres unmarked) [Compound 47], for which, in assay [1], the ED (2 x ED95) worked out at 1.4 mg/kg, the Onset time is recorded as less than 40 s and the Recovery time amounted to 3.1 ± 0.7 min.
Turning to `C[N+](C)(C)CCOC(=O)CCC(=O)OCC[N+](C)(C)C` [Succinylcholine, reference compound], in assay [1], the ED (2 x ED95) was found to be 1.8 mg/kg, the Onset time is less than 40 s, the Recovery time is recorded as 13.3 ± 3.5 min and the “change characteristics of TOF 1-4 after administration” value was “decreased in the same proportion until disappearance”. Moreover, the “duration of muscle relaxation / action time” value in the assay with human body is reported as 10 min.
In the case of `CC(=O)O[C@H]1C[C@@H]2CC[C@@H]3[C@H](CC[C@@]4(C)[C@H]3C[C@H]([N+]3(C)CCCCC3)[C@@H]4OC(C)=O)[C@@]2(C)C[C@@H]1[N+]1(C)CCCCC1` [pancuronium], the “duration of muscle relaxation / action time” value in the assay with human body is greater than 60 min.
micuronium: the “duration of muscle relaxation / action time” value with human body was 15 to 20 min.
